# “Also recorded” adds a separate entry of the source. Read-outs that look alike come from different tables or passages of the source.
# Assays:
# [1] = target: T1, D4.4 (h) (Homo sapiens, UniProt P21917); experiment: biochemical; assay type: binding; conditions: 1.0E-06 M
# T1 sequence (P21917 1-419): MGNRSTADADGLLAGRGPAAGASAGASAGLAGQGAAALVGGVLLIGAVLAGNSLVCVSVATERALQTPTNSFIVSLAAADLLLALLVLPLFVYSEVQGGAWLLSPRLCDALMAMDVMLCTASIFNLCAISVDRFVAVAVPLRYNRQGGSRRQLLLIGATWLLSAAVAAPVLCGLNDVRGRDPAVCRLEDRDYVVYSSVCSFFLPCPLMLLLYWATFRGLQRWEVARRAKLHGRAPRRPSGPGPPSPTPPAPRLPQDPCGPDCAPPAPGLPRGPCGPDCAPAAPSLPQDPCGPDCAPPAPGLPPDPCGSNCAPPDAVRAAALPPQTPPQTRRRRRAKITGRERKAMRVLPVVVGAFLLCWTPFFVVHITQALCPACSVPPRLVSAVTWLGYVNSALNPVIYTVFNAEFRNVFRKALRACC
# [2] = tested on: CD-1 mice; experiment: Forced swim test
# [3] = tested on: NMRI mice; experiment: Locomotor activity; assay type: in vivo, mouse; conditions: 0.1, 3 or 10 mg/kg PO
# Experimental: NMRI mice were habituated to their room for at least 2 weeks after the delivery and kept under standard conditions in groups of 4–5 animals per cage. Food and water were available ad libitum.
# Spontaneous motility and rearing were measured by an automated system (Coulbourn Instruments, USA). Animals were introduced into transparent square cages (40 cm length) that are equipped with 2 light barrier systems in order to monitor the movements as well as rearing behavior automatically. The movements of the animals were recorded for 30 minutes. At the end of the experiment, the animals were sacrificed via isofluorane inhalation and subsequent decapitation.
# [4] = target: Kv1.5 (Homo sapiens, UniProt P22460); experiment: Ion channel selectivity patch clamp; assay type: cell-based; conditions: Voltage (+40 mV)
# Sequence of Kv1.5 (P22460 whole entry): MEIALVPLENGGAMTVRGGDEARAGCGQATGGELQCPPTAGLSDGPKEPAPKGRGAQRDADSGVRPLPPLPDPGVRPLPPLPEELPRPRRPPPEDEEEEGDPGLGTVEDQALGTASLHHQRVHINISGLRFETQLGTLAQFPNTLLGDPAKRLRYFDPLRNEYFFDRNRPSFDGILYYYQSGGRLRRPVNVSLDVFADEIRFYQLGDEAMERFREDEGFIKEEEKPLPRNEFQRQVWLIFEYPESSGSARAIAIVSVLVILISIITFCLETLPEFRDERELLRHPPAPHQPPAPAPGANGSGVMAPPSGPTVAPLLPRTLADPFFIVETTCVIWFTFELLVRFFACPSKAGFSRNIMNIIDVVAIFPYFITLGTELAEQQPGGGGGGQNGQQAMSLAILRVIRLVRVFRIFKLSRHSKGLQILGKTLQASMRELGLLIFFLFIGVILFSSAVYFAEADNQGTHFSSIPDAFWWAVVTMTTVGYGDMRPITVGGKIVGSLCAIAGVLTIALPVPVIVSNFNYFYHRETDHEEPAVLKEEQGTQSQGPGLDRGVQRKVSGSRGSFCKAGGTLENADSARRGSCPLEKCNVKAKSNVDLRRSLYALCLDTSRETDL
# [5] = tested on: basolateral amygdala neurons; experiment: Slice recordings of CCK-4 induced EPSCs; assay type: cell-based, mouse
# [6] = tested on: TR (TH); assay type: binding, rat; conditions: 1.0E-06 M
# [7] = target: T2, FLT-1 kinase (h) (VEGFR1) (Homo sapiens, UniProt P17948); experiment: enzyme assay; assay type: biochemical; conditions: 1.0E-06 M
# T2 construct: host or cells: Sf9 cells
# T2 sequence (P17948 27-1338): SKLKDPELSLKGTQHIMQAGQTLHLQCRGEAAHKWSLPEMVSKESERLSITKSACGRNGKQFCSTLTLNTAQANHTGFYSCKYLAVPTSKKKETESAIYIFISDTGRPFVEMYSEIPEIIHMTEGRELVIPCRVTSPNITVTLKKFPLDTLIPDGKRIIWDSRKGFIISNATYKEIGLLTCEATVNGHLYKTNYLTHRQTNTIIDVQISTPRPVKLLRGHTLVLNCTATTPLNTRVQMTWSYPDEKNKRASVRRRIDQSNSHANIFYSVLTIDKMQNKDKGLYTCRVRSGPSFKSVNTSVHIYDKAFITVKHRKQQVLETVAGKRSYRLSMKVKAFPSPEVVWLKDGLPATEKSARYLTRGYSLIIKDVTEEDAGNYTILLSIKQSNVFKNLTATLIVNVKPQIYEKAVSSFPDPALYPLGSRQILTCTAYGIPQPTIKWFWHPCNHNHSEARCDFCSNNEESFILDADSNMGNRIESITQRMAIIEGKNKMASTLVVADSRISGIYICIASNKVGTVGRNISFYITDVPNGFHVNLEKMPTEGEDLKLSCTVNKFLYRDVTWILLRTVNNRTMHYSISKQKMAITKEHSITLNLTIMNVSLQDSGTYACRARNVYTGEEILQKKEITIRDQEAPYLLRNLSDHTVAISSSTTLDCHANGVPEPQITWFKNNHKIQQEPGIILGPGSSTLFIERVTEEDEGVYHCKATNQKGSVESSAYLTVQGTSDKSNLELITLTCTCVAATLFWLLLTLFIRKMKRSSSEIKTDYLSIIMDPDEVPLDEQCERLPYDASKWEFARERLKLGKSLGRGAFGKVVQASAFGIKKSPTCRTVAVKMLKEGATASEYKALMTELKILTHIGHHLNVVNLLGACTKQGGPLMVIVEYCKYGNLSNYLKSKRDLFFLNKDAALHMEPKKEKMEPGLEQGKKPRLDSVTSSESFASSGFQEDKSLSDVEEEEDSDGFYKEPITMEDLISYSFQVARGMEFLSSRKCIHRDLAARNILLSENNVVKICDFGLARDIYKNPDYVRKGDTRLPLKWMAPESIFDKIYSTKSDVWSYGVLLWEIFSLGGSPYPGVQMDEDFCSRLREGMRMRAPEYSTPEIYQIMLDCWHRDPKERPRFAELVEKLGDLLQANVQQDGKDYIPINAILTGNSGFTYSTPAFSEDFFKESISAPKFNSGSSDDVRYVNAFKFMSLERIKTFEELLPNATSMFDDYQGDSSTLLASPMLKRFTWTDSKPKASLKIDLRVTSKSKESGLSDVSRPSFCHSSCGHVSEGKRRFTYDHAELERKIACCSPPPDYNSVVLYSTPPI
# [8] = target: T3, mTRPC5 (Mus musculus, UniProt Q9QX29); experiment: Whole-cell manual patch clamp; assay type: cell-based; conditions: La3+ (80 μM)
# T3 construct: The cDNAs for various full-length ion channels were subcloned into pcDNA5/TO; expressed in transfected cells
# [9] = target: T4, mTRPC4 (Mus musculus, UniProt Q9QUQ5); experiment: Whole-cell manual patch clamp; assay type: cell-based; conditions: 10 µM carbachol /M1R
# T4 construct: The cDNAs for various full-length ion channels were subcloned into pcDNA5/TO; expressed in transfected cells
# T4 sequence (Q9QUQ5 1-890 isoform Q9QUQ5-2): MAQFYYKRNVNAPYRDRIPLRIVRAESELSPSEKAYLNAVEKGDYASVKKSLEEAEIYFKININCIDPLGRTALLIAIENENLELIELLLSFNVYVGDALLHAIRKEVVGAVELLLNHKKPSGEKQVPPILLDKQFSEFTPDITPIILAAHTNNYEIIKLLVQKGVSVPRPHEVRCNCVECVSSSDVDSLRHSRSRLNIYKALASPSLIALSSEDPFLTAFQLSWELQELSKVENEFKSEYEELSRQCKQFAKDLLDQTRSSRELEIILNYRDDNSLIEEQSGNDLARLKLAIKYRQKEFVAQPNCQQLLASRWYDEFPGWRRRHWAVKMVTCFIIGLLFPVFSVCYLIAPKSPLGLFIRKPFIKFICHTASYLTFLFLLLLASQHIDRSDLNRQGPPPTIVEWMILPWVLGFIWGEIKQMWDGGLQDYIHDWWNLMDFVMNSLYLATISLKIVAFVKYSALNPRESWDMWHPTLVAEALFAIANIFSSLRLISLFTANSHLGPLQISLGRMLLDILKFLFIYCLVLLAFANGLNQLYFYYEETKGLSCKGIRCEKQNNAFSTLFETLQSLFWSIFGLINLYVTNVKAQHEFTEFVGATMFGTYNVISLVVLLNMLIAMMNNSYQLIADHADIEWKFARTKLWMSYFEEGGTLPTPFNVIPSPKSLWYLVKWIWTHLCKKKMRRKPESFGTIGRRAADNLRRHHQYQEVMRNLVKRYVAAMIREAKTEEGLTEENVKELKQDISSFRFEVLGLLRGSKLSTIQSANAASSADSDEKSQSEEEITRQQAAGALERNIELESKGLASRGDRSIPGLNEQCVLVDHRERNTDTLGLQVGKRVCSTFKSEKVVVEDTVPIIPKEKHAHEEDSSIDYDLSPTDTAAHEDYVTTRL
# [10] = target: T5, H2 (h) (Homo sapiens, UniProt P25021); assay type: binding; conditions: 1.0E-06 M
# T5 construct: host or cells: CHO cells
# T5 sequence (P25021 whole entry): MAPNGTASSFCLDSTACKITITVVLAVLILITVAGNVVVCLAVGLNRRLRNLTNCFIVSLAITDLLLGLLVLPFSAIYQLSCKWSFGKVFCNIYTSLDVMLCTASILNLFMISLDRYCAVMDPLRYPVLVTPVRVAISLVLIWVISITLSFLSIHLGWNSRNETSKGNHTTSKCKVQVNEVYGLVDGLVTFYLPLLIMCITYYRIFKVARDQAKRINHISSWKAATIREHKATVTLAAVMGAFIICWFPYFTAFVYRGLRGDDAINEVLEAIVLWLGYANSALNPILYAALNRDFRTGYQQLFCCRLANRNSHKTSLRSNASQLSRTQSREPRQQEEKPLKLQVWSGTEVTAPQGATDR
# [11] = tested on: ATPase (Na+/K+); experiment: enzyme assay; assay type: biochemical, porcine; conditions: 1.0E-06 M
# [12] = target: D2S (h) (Homo sapiens, UniProt P14416); experiment: biochemical
# Sequence of D2S (h) (P14416 1-414 isoform P14416-2): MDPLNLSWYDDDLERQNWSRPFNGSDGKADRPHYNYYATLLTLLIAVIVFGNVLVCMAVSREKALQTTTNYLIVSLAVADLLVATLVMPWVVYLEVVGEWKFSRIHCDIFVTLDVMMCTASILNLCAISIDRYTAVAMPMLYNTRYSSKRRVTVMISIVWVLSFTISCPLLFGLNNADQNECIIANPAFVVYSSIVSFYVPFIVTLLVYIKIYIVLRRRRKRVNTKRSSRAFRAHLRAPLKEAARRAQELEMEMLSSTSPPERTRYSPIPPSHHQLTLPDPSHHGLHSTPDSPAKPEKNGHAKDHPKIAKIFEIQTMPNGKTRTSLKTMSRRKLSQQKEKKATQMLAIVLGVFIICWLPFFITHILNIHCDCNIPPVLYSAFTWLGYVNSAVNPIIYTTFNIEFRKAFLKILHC
# [13] = target: T6, M4 (h) (Homo sapiens, UniProt P08173); experiment: biochemical
# T6 sequence (P08173 1-479): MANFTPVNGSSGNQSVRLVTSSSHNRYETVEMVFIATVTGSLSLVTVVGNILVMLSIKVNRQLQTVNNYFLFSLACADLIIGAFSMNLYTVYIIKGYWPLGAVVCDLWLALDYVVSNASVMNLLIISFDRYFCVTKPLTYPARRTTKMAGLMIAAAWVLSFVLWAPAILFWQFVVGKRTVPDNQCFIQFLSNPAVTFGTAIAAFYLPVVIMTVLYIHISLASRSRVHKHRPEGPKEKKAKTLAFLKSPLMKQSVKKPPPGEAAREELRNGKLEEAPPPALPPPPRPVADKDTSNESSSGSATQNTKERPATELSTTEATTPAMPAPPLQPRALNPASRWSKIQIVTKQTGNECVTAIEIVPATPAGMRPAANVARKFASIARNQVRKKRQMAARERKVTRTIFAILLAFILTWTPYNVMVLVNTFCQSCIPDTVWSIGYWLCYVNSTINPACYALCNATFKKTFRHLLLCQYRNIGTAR
# [14] = target: T7, hTRPC5 (Homo sapiens, UniProt Q9UL62); experiment: Whole-cell manual patch clamp; assay type: cell-based
# T7 construct: The cDNAs for various full-length ion channels were subcloned into pcDNA5/TO; expressed in transfected cells
# T7 sequence (Q9UL62 whole entry): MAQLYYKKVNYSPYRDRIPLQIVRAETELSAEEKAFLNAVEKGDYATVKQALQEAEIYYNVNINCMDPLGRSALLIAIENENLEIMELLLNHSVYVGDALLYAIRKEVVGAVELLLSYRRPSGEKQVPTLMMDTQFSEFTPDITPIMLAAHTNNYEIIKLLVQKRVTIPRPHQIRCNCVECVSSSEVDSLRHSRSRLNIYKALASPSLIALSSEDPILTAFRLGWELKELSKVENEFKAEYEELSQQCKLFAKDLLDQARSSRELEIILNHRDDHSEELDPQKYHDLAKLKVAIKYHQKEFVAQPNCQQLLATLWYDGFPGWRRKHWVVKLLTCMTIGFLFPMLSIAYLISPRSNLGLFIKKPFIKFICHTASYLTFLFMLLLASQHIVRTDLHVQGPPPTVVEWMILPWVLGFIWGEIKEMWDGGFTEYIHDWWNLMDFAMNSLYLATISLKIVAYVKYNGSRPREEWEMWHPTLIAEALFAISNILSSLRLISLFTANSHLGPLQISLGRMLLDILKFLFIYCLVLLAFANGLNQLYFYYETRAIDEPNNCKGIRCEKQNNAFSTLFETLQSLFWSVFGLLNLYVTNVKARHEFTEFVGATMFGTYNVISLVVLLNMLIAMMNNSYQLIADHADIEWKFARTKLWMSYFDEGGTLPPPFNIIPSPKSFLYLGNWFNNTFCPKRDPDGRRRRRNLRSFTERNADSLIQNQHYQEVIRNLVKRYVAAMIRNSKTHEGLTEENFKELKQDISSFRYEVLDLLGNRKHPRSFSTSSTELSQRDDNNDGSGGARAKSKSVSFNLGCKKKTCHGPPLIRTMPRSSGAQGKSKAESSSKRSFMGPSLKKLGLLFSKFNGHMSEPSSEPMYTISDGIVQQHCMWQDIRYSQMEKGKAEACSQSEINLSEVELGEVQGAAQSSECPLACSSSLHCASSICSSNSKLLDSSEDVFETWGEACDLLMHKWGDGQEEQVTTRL
# [15] = tested on: sigma (non-selective) (h); assay type: binding, human; conditions: 1.0E-06 M
# [16] = tested on: AMPA; assay type: binding, rat; conditions: 1.0E-06 M
# [17] = target: T8, caspase-3 (h) (Homo sapiens, UniProt P42574); experiment: biochemical; conditions: 1.0E-06 M
# T8 construct: Cerep (contract assay); host or cells: E. coli
# T8 sequence (P42574 29-175 limits assumed): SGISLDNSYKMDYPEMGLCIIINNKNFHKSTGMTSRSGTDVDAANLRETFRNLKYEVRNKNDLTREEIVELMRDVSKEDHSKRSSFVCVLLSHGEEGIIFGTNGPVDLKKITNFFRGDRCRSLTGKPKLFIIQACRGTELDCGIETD
# T8 sequence (P42574 176-277 limits assumed): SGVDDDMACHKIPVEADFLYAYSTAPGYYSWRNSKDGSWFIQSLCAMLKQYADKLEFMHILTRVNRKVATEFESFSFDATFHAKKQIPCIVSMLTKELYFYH
structure (smiles),measurement,setting,value
Cn1c(=O)n(CCCO)c(=O)c2c1nc(Oc1cccc(Cl)c1)n2Cc1ccc(Cl)cc1 [HC-070],inhibition at 1 µM,[1]; read-out: % Inhibition 1st,-15.8%
same,inhibition at 1 µM,[1]; read-out: % Inhibition 2nd,-1.8%
same,inhibition at 1 µM,[1]; read-out: % Inhibition Mean,-8.8%
same,immobility time,"[2]; 0.3, 1 or 3 mg/kg PO, 60 min prior, CD-1 mice",reduced the immobility time; also recorded: significantly decreased
same,IC50,"[2]; Mus musculus, read-out: IC50 of immobility versus average plasma exposure (PK-PD)",58 nM
same,calculated free brain concentration corresponding to PK-PD IC50,"[2]; male, CD-1 and C57BL/6, mouse, in vivo",0.16 nM
same,locomotor activity,[3],not impacted
same,IC50,[4],> 1900 nM
same,effect on CCK-4 stimulated increase of postsynaptic currents,"[5]; 20 nM, CCK-4 1 μM",pronounced attenuation of the CCK-4 related effect
same,basal synaptic activity prior to CCK-4 addition,"[5]; slices pretreated with 20 nM HC-070, n = 8",154±35 postsynaptic currents/minute
Cn1c(=O)n(CCCO)c(=O)c2c1nc(Oc1cccc(OC(F)(F)F)c1)n2Cc1ccc(Cl)cc1 [HC-608],% Inhibition 1st,[6],3.2%
same,% Inhibition 2nd,[6],-1.6%
same,% Inhibition Mean,[6],0.8%
same,inhibition at 1 µM,[1]; read-out: % Inhibition 1st,-20.4%
same,inhibition at 1 µM,[1]; read-out: % Inhibition 2nd,3.4%
same,inhibition at 1 µM,[1]; read-out: % Inhibition Mean,-8.5%
same,inhibition at 1 µM,[7]; read-out: % Inhibition 1st,9.3%
same,inhibition at 1 µM,[7]; read-out: % Inhibition 2nd,7.3%
same,inhibition at 1 µM,[7]; read-out: % Inhibition Mean,8.3%
same,IC50,[8],~0.62 nM
same,IC50,[9],~0.45 nM
same,inhibition at 1 µM,[10]; read-out: % Inhibition 1st,1.1%
same,inhibition at 1 µM,[10]; read-out: % Inhibition 2nd,7.7%
same,inhibition at 1 µM,[10]; read-out: % Inhibition Mean,4.4%
same,% Inhibition 1st,[11],3.0%
same,% Inhibition 2nd,[11],-1.5%
same,% Inhibition Mean,[11],0.8%
same,inhibition at 1 µM,[12]; read-out: % Inhibition 1st,19.2%
same,inhibition at 1 µM,[12]; read-out: % Inhibition 2nd,9.4%
same,inhibition at 1 µM,[12]; read-out: % Inhibition Mean,14.3%
same,inhibition at 1 µM,[13]; read-out: % Inhibition 1st,-16.1%
same,inhibition at 1 µM,[13]; read-out: % Inhibition 2nd,3.9%
same,inhibition at 1 µM,[13]; read-out: % Inhibition Mean,-6.1%
same,IC50,[14]; 20 μM carbachol/M1R,~0.67 nM
same,IC50,[14]; La3+ (80 μM),~0.17 nM
same,% Inhibition 1st,[15],28%
same,% Inhibition 2nd,[15],30.6%
same,% Inhibition Mean,[15],29.3%
same,% Inhibition 1st,[16],-2.1%
same,% Inhibition 2nd,[16],-9.2%
same,% Inhibition Mean,[16],-5.6%
same,inhibition at 1 µM,[17]; read-out: % Inhibition 1st,3.7%
same,inhibition at 1 µM,[17]; read-out: % Inhibition 2nd,2.3%
same,inhibition at 1 µM,[17]; read-out: % Inhibition Mean,3%
